30 molecules from patent US20100179158A1, “INHIBITORS OF CYCLIC AMP PHOSPHODIESTERASES” (priority 2007, published 2010) can be followed below.

T4 sequence (Q13946 whole entry, the tested form may be a part): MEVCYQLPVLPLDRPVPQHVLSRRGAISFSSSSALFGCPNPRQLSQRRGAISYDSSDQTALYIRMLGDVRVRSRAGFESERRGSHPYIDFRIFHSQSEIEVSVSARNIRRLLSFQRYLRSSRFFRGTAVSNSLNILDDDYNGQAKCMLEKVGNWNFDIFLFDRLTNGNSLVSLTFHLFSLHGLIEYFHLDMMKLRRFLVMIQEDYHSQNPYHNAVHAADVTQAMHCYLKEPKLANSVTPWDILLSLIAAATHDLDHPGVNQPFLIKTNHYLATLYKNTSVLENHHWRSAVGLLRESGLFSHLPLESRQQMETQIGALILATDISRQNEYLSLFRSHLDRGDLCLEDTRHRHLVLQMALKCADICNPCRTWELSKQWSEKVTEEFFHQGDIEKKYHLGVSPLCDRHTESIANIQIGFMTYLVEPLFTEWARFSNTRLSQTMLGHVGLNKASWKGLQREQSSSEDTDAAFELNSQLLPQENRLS

The target in the first assay is T1, PDE4D3 (Homo sapiens, UniProt Q08499).
T1 construct: targets used in the assays are full-length proteins (as opposed to simply the catalytic domain); expressed in transfected cells; host or cells: Schizosaccharomyces pombe, gene integrated at the cgs2 locus
T1 sequence (Q08499 1-673 isoform Q08499-2): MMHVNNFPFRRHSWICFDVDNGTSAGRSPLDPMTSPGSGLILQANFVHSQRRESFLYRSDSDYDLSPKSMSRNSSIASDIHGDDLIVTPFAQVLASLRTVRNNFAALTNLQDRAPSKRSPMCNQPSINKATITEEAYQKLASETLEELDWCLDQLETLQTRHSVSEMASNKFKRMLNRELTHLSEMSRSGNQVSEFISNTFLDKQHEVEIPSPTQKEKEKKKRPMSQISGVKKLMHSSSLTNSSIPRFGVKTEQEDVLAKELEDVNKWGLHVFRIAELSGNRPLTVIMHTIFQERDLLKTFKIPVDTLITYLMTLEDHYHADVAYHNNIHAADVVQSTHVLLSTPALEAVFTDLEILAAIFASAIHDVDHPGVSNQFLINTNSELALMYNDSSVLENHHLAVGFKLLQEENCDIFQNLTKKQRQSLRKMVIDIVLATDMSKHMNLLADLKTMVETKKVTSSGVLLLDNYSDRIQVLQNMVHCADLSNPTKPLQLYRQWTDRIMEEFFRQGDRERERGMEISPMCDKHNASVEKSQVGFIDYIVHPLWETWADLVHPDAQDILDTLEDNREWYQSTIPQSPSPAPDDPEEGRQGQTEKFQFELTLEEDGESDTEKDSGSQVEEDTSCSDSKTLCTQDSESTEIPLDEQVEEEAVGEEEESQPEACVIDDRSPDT
The experiment in a line: IC50 on PDE4D3. Format: biochemical. As to conditions: read-out: IC50, PDE 4D3.
As to `CC(C)n1c2ccc(Cl)cc2c2nc3ccccc3nc21` [Compound 35], the IC50 was 35 nM.

The next assay deals with T2, PDE8A (Mus musculus, UniProt O88502).
T2 construct: targets used in the assays are full-length proteins (as opposed to simply the catalytic domain); expressed in transfected cells; host or cells: Schizosaccharomyces pombe strains DDP13 and CHP1141
T2 sequence (O88502 1-823): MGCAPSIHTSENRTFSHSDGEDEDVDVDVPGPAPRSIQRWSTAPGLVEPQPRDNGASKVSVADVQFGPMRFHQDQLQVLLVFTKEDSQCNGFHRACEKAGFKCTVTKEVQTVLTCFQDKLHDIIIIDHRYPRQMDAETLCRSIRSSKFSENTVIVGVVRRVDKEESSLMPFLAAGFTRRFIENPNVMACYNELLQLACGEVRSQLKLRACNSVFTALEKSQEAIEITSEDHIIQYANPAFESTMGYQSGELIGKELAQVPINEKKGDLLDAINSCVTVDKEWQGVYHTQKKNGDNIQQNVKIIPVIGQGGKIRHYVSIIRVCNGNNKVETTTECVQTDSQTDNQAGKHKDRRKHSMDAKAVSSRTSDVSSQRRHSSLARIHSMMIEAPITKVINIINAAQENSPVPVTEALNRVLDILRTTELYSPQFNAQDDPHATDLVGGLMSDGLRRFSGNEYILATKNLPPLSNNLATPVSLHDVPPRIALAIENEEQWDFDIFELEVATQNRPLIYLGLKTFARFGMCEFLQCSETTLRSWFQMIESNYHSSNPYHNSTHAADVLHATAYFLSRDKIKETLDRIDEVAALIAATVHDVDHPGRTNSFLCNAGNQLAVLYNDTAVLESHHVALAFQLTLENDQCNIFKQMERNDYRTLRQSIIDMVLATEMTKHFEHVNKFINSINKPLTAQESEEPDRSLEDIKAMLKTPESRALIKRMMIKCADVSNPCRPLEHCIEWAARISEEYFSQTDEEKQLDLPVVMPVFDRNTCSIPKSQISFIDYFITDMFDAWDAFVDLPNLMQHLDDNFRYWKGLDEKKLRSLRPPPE
Nature of the assay: fbp1-lacZ β-galactosidase assay, PDE8A strain DDP13. Format: cell-based, murine. The following applies: possibly a permeability problem in the yeast. Here is the method:
β-galactosidase assays and characterization of 5FOA-sensitivity were carried out as previously described^10. cAMP assays were performed on exponential phase cells grown in EMM complete medium (3% glucose), using the Assay Designs cAMP EIA kit, according to manufacturer's instructions (Assay Designs, Ann arbor, MI).
The effect of known PDE inhibitors on the expression of the fbp1-lacZ fusion in murine PDE-expressing strains was tested. […] For Table 4 β-galactosidase activity was determined from 3 to 4 independent exponential phase cultures. The average±SD represents specific activity per milligram of soluble protein.
On to `OCCN(CCO)c1nc(N2CCCCC2)c2nc(N(CCO)CCO)nc(N3CCCCC3)c2n1` [dipyridamole], for which the “Inhibition of PDE8A in yeast” value is reported as “not able to be inhibited”.

The target in a further assay is T3, PDE4A1 (Mus musculus, UniProt O89084).
T3 construct: targets used in the assays are full-length proteins (as opposed to simply the catalytic domain); expressed in transfected cells; host or cells: Schizosaccharomyces pombe, gene integrated at the cgs2 locus
T3 sequence (O89084 1-610 isoform O89084-2): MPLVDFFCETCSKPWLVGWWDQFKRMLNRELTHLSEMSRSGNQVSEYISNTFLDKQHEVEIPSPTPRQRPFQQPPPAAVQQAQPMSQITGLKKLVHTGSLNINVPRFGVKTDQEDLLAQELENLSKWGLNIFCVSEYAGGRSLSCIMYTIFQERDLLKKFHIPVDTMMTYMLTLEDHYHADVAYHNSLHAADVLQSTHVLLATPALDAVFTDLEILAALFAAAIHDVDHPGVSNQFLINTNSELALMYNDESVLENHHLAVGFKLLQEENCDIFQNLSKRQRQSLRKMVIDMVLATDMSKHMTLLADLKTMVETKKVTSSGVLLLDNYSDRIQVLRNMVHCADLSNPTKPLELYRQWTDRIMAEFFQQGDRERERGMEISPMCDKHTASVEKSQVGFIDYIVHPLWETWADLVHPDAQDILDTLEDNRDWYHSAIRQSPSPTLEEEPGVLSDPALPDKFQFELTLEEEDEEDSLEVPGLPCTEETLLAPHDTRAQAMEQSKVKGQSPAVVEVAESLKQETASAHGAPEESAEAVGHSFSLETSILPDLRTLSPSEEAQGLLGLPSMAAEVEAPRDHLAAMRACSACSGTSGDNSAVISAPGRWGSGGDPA
Nature of the assay: IC50 on PDE4A1. Format: biochemical, murine. The following applies: read-out: IC50, PDE 4A1.
`CC(C)n1c2ccc(Cl)cc2c2nc3ccccc3nc21` [Compound 35]: the IC50 worked out at 100 nM.

A further assay has as its target T4, PDE7A (Homo sapiens, UniProt Q13946).
T4 construct: targets used in the assays are full-length proteins (as opposed to simply the catalytic domain); expressed in transfected cells; host or cells: Schizosaccharomyces pombe, gene integrated at the cgs2 locus
The experiment in a line: Fission yeast 5FOA growth assay, strain expressing PDE7A. The following applies: 5FOA growth. It counts as cell-based. Here is the method: (§1) Cells were pregrown in EMM medium [MP Biomedicals (Solon, OH), 3% glucose, filter-sterilized to avoid carmelization, which would introduce variability into the optical density of the medium] containing from 0 mM to 2.5 mM cAMP (or either 0.5 mM or 1.0 mM cGMP). This was to repress expression of the fbp1-ura4 reporter prior to exposure of cells to 5FOA medium. Cells were grown at 30° C. to exponential phase (approximately 10^7 cells/ml). Cells were collected by centrifugation and resuspended in 5FOA medium, and 25 μl were transferred to 384-well microtiter dishes (untreated, with flat clear bottoms) that had been pre-filled with 25 μl 5FOA medium and pre-pinned with 100 nl of compounds (stock solutions were generally 10 mM). Starting cell concentrations ranged from 0.5×10^5 to 4×10^5 cells/ml depending on the screening strain. […] Other positive control dishes contained 5 mM cAMP in the 5FOA medium for PDEs that lack appropriate control compounds. Cultures were grown for 48 hours at 30° C., sealed in an airtight container with moist paper towels to prevent evaporation. Optical densities (OD600) of cultures were measured using a microplate reader. Bioinformatic analysis of the results to determine composite Z scores was performed as previously described (1, 3).
In the case of `CC(C)(C)c1c(C#N)sc2sc(C#N)c(N)c12` [Compound 30-4], the “ED50, PDE 7A” value was “ND ND weak activity ND ND”.

Another assay deals with PDE2A, PDE4A, PDE4B, Cgs2. Nature of the assay: High throughput 5FOA growth screens of bioactive libraries. It counts as cell-based, murine; Schizosaccharomyces pombe. As to conditions: average 20 μM; composite Z score cut-off ≧8.53. The protocol: High throughput drug screens were carried out at the Broad Institute's Chemical Biology Program screening facility (Broad Institute, Cambridge, Mass.). Depending upon the strain, cultures were pregrown to exponential phase in EMM complete medium containing from 0.5 to 2.5 mM cAMP to repress fbp1-ura4 transcription. […] Starting cell concentrations ranged from 0.5×10^5 to 4×10^5 cells/ml depending on the screening strain. […] Other positive control dishes contained 5 mM cAMP in the 5FOA medium. Cultures were grown for 48 hours at 30° C., sealed in an airtight container with moist paper towels to prevent evaporation. Optical densities (OD600) of cultures were measured using a microplate reader. Bioinformatic analysis of the results to determine composite Z scores was performed as previously described^30, 31.
Regarding `Cc1cc2cc3c(C)cc(=O)oc3c(C)c2o1` [trioxsalen], the “Result in high throughput screens for 5FOA-resistant growth” value (from here on “Result in high throughput screens”) is recorded as “identified”.

As to `COc1c2occc2c(OC)c2c(=O)cc(C)oc12` [khellin], the “Result in high throughput screens” value was “identified”.

`COc1c2ccoc2cc2oc(C)cc(=O)c12` [visnagin]: the “Result in high throughput screens” value is “identified”.

In a further assay the test system is PDE4A, PDE4B, PDE4D, PDE7A. Nature of the assay: Overall PDE inhibitor profile from the yeast assays (table footnotes, summary). It counts as cell-based.
Details: not given
Text: PDE inhibitors were identified using methods described herein, such as high throughput drug screens on genetically engineered fission yeast strains that express drug targets (e.g., PDE4A and/or PDE4B, which are anti-inflammatory targets). PDE inhibitors were identified based on their ability to stimulate growth and compounds were identified because they were effective in live cells. In addition, targets used in the assays are full-length proteins (as opposed to simply the catalytic domain) and the assay used included a built-in toxicity test, permeability test and stability test. The inhibitors identified display a very high degree of target specificity. Compounds identified include inhibitors that act on two of three PDE4 family enzymes and inhibitors that act on combinations of PDE4 and PDE7 strains. […] Limited inhibition of PDE4D by a PDE inhibitor is desirable, in view of the fact that inhibition of PDE4D causes emesis and cardiac arrhythmias. Subtype specificity was confirmed by means of cAMP assays.
as §1
Take `CCOC(=O)c1sc2sc(C(=O)OCC)c(-c3ccco3)c2c1N` [Compound 30-1]: the “PDE inhibitor profile in words (table footnote / summary)” value is given as “(4) Weak PDE4A inhibitor”.

Consider `CCCCn1c2ccccc2c2nc3ccccc3nc21` [2013, I20], for which the “PDE inhibitor profile in words (table footnote / summary)” value is on record as “(2) Strong PDE4A inhibitor”.

`COC(=O)C1=C(C)N(Cc2ccccc2)C(=O)/C1=C\c1cccs1` [Compound 27-4]: the “PDE inhibitor profile in words (table footnote / summary)” value was “(1) Strong PDE4A, 4B inhibitor”.

In the case of `CCC(=O)C1=C(C)N(c2cccc(C(F)(F)F)c2)C(=O)/C1=C\c1cccs1` [Compound 27-7], the “PDE inhibitor profile in words (table footnote / summary)” value is listed as “(3) Strong PDE4A5 inhibitor”.

For the molecule `COC(=O)C1=C(C)N(C)C(=O)/C1=C\c1cccs1` [Compound 27-2], the “PDE inhibitor profile in words (table footnote / summary)” value is on record as “(2) Strong PDE4A, 4B inhibitor; Moderate PDE4D inhibitor”.

Take `C=CCn1c2ccccc2c2nc3ccccc3nc21` [1427, P20]: the “PDE inhibitor profile in words (table footnote / summary)” value is listed as “(3) Strong 4B, Moderate 4A inhibitor”.

`CC(C)(C)c1c(C#N)sc2sc(C#N)c(N)c12` [Compound 30-4]: the “PDE inhibitor profile in words (table footnote / summary)” value was “(3) Little/no activity under conditions used”.

Take `CC(C)Cn1c2ccccc2c2nc3ccccc3nc21` [1422, M02]: the “PDE inhibitor profile in words (table footnote / summary)” value is listed as “(1) Strong PDE4A inhibitor”.

On to `CCCCn1c2ccccc2c2nc3ccccc3nc21` [2015, P06], for which the “PDE inhibitor profile in words (table footnote / summary)” value was “(2)-(4) Moderate PDE4A, 4B inhibitors”.

For `N#Cc1sc2sc(C#N)c(-c3ccco3)c2c1N` [Compound 30], the “PDE inhibitor profile in words (table footnote / summary)” value is recorded as “(2) Strong PDE7A inhibitor”.

With `N#Cc1sc2sc(C#N)c(-c3ccc(Cl)cc3)c2c1N` [Compound 30-3], the “PDE inhibitor profile in words (table footnote / summary)” value is recorded as “(3) Little/no activity under conditions used”.

Consider `C=CCn1c2ccc(Br)cc2c2nc3ccccc3nc21` [2017, C18], for which the “PDE inhibitor profile in words (table footnote / summary)” value is given as “(2)-(4) Moderate PDE4A, 4B inhibitors”.

Consider `COC(=O)C1=C(C)N(c2cccc(C)c2)C(=O)/C1=C\c1cccs1` [Compound 27-5], for which the “PDE inhibitor profile in words (table footnote / summary)” value is “(2) Strong PDE4A, 4B inhibitor, Moderate PDE4D inhibitor”.

As to `CC(C)Cn1c2ccc(Br)cc2c2nc3ccccc3nc21` [2015, L04], the “PDE inhibitor profile in words (table footnote / summary)” value is reported as “(5) Moderate 4B inhibitor”.

`COC(=O)C1=C(C)N(C)C(=O)/C1=C\c1cccs1` [Compound 27-1]: the “PDE inhibitor profile in words (table footnote / summary)” value is given as “(1) Strong PDEA5 inhibitor”.

Regarding `Cc1cc(C)nc(SCC[S+]([O-])c2ccc(C(C)(C)C)cc2)n1` (centres unmarked) [Compound 26-2], the “PDE inhibitor profile in words (table footnote / summary)” value is given as “(2) Moderate 4A inhibitor”.

`COC(=O)C1=C(C)N(c2ccccc2Cl)C(=O)/C1=C\c1ccco1` [Compound 27-8]: the “PDE inhibitor profile in words (table footnote / summary)” value is recorded as “(2) Strong PDE4A, 4B inhibitor”.

Take `C=Cn1c2ccccc2c2nc3ccccc3nc21` [2033, H06]: the “PDE inhibitor profile in words (table footnote / summary)” value is reported as “(1) Moderate to strong PDE4A, 4B inhibitor”.

Regarding `COC(=O)C1=C(C)N(CC(C)C)C(=O)/C1=C\c1cccs1` [Compound 27-3], the “PDE inhibitor profile in words (table footnote / summary)” value is “(1) Strong PDE4A, 4B inhibitor”.

For `C=CCn1c2ccc(Br)cc2c2nc3ccccc3nc21` [2019, G03], the “PDE inhibitor profile in words (table footnote / summary)” value is listed as “(2)-(4) Moderate PDE4A, 4B inhibitors”.

Regarding `CCC(=O)C1=C(C)N(c2ccc(F)cc2)C(=O)/C1=C\c1cccs1` [Compound 27-6], the “PDE inhibitor profile in words (table footnote / summary)” value was “(4) Strong PDE4A, 4B inhibitor, Moderate PDE7A inhibitor”.

For the molecule `O=C(O)Cn1c2ccc(Cl)cc2c2nc3ccccc3nc21` [1429, L06], the “PDE inhibitor profile in words (table footnote / summary)” value is on record as “(4) Moderate PDE4A, 4B inhibitor”.

Regarding `COc1ccc2c(c1)[C@]1(C)CCC[C@@](C)(CO)C1CC2` (some centres unmarked) [Compound 2067M03], the “PDE inhibitor profile in words (table footnote / summary)” value was “(1) Strong PDE7A inhibitor, Weak to moderate PDE4A, 4B inhibitor”.

Take `Cc1ccc2c(c1)CC[C@@H]1CC(=O)CC[C@@]21C` [Compound 2158J12]: the “PDE inhibitor profile in words (table footnote / summary)” value was “(2) Strong PDE7A and PDE4s (including D) inhibitor”.

Consider `N#Cc1sc2sc(C#N)c(-c3cccs3)c2c1N` [Compound 30-2], for which the “PDE inhibitor profile in words (table footnote / summary)” value is on record as “(1) Weak PDE7A inhibitor”.

The IC50 is the midpoint of a concentration-inhibition curve.
